For the test, the system named is CEM cells HIV-1 protection, formazan growth assay. In words: NCI AIDS Antiviral Assay. The note with it: for IC50: measured here: growth of uninfected CEM cells. A digest of the protocol: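 Protection of CEM cells against HIV-1 measured as cell growth via soluble formazan read-out, with five concentrations tested on both infected and uninfected cells; failure to protect may reflect toxicity.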

“And” between values parts separate entries of the source, which are not always exact repeats. Identical values can stand only once. The source made the active and inactive calls.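 The calls were made as follows: active = compounds giving half or more protection of infected cells from virus-caused growth loss, again on retest; inactive = the rest.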 Where a SMILES comes first, the peptide text is derived from it. Bridges are numbered along the chain shown (N, C = ends). [ ]: non-standard residue; d: D form. The star is where a group is joined. ξ: configuration not given here. PhAc = O=C(Cc1ccccc1)*; ξD = NC(CC(=O)O)C(=O)O; Boc = CC(C)(C)OC(=O)*; Aib = CC(C)(N)C(=O)O; OBn = c1ccc(CO*)cc1; ξP = O=C(O)C1CCCN1 Where only a bound is given, the exact number is not on record here.

On to `Nc1ccc(/C=C/c2ccc(N=Nc3cc(S(=O)(=O)O)c4cccnc4c3O)cc2S(=O)(=O)O)c(S(=O)(=O)O)c1`, for which the EC50 was 34.7 µM and the IC50 was > 200 µM.

Consider `COc1cc([N+](=O)[O-])c(S(=O)(=O)O)cc1N`, for which the EC50 was > 1000 µM and the IC50 is > 1000 µM.

`O=C1[C@@H]2C(c3ccc(Br)cc3)=NO[C@@H]2C(=O)N1c1ccc(Cc2ccc(N3C(=O)[C@H]4C(c5ccc(Br)cc5)=NO[C@H]4C3=O)cc2)cc1`: the EC50 was > 9.55 µM and the IC50 is > 9.55 µM.

With `COc1cc(Cc2nnc(N)nc2N)cc(OC)c1OC`, the EC50 is > 17.8 µM and the IC50 was > 17.8 µM.

With `Cc1[nH]c(-c2ccccc2)c(O)c1C(=O)OC1CC(C)CCC1C(C)C` (centres undefined), the EC50 was > 200 µM and the IC50 worked out at 23.4 µM.

For the molecule `O=c1sc2ccccc2c2c1C=CCO2`, the EC50 was > 46.8 µM and the IC50 is > 46.8 µM.

Consider `COc1nc(N)c(NC2OCC(O)C(O)C2O)c(=O)n1C` (centres undefined), for which the EC50 is 195 µM and 182 µM and > 200 µM; the IC50 is 603 µM and 224 µM and > 200 µM.

As for `N#CN/C(N)=N/C/N=C(\N)NC#N`, the EC50 was > 501 µM and the IC50 was > 501 µM.

For `Cc1ccc(-c2cnc(NC3OC(COC(=O)c4ccccc4)C(OC(=O)c4ccccc4)C(OC(=O)c4ccccc4)C3OC(=O)c3ccccc3)s2)cc1` (centres undefined), the EC50 was > 200 µM and the IC50 is 13.8 µM.

Take `c1ccc(Nc2nnc(-c3nsc4ccccc34)o2)cc1`: the EC50 was > 24.5 µM and the IC50 was > 24.5 µM.

For `Cc1ccc2c(c1)C1(SCCC(=O)N1c1ccc(Cl)cc1)C(=O)N2` (centres undefined), the EC50 is > 191 µM and the IC50 came to 91.2 µM.

Regarding `COC1CC(O[C@H]2CC[C@@]3(C)[C@H](CC[C@@H]4[C@@H]3CC[C@]3(C)[C@@H](C5=CC(=O)OC5)[C@@H](OC(C)=O)C[C@]43O)C2)OC(C)C1O` (some centres undefined), the EC50 is > 0.2 µM and the IC50 amounted to 0.0102 µM.

Take `COc1cc2c(cc1O)[C@@H]1Cc3c(cc(OC)c(OC)c3Oc3cc4c(cc3OC)CCN(C)[C@@H]4Cc3ccc(O)cc3)[C@H](C2)N1C`: the EC50 is > 200 µM and the IC50 is 15.5 µM.

On to `O=S1c2ccccc2N=C(c2ccc(Cl)cc2)CC1c1cccs1` (centres undefined), for which the EC50 was > 7.41 µM and the IC50 is > 7.41 µM.

Take `CCC(C(=O)NC1CN2CCC1CC2)c1ccccc1` (centres undefined): the EC50 was > 200 µM and the IC50 is 174 µM.

`CN(C)CCCN1c2ccccc2Sc2ccc(C(F)(F)F)cc21`: the EC50 is > 200 µM and the IC50 was determined as 107 µM.

In the case of `Cc1c(CCCl)c(=O)n2c([nH]c3ccccc32)c1C#N`, the EC50 is > 200 µM and the IC50 amounted to 7.59 µM.

Regarding `COc1ccc(/C=C2\NC(=S)N(CN3CCOCC3)C2=O)cc1`, the EC50 is > 200 µM and the IC50 came out at 46.8 µM.

Take `CCCc1ccc(OC2OC(COC(C)=O)C(OC(C)=O)C(OC(C)=O)C2OC(C)=O)cc1` (centres undefined): the EC50 is > 95.5 µM and the 50% inhibitory concentration (IC50) is > 95.5 µM.

`C=C1CC[N+]2(C)CCCC12` (centres undefined): the EC50 is > 1150 µM and the IC50 is > 1150 µM.

Turning to `C=CCOC(=O)C1CC2OC2CC1C(=O)OCC=C` (centres undefined), the EC50 is > 200 µM and the IC50 is > 200 µM.

Turning to `CC(=O)OC1CC2Oc3ccc(C)cc3C(C)(O2)C1=O` (centres undefined), the result was inactive.

On to `COc1ccc(/C(=N/NC(=O)NN)C(c2ccc(OC)cc2)C2(O)CNc3c(Cl)cc(Cl)cc32)cc1` (centres undefined), for which the EC50 was > 9.77 µM and the IC50 is > 9.77 µM.

As for `Cc1cc(C)nc(NS(=O)(=O)c2ccc(NNC(=O)c3cccc4c(=O)c5ccccc5[nH]c34)cc2)n1`, the EC50 was > 200 µM and the IC50 was determined as 31.6 µM.

With `CN1Cc2ccccc2[C@H]2C(c3ccccc3)=NN(c3ccccc3)[C@H]21`, the EC50 is > 200 µM and the IC50 is > 200 µM.

For `CC(C)(C)Sc1nnc(SC(C)(C)C)c2c(=O)[nH]nc(SC(C)(C)C)c12`, the result was inactive.

Take `CC1=C(C#N)C2(C(=O)Nc3ccccc32)C(C#N)=C(C)N1`: the EC50 was > 162 µM and the IC50 was > 162 µM.

For `c1ccc(-c2c(-c3cccs3)[nH]c(-c3cccs3)c2-c2ccccn2)nc1`, the EC50 was > 38 µM and the IC50 was 25.7 µM.

For `CC(C)(C)OC(=O)NC(CC(=O)OCc1ccccc1)C(=O)NC(C)(C)C(N)=O` (centres undefined) (Boc-[ξD](OBn)-[Aib]-NH2), the EC50 was > 200 µM and the IC50 was > 200 µM.

Take `CC1(SCC(N)C(=O)O)CC(=O)NC1=O` (centres undefined): the EC50 is > 200 µM and the IC50 was > 200 µM.

For the molecule `Nc1ccn(C2CCC(CO)O2)c(=S)n1` (centres undefined), the EC50 was > 200 µM and the IC50 is > 200 µM.

Consider `CCCCCCCCCCCCCCCCOP(=O)(O)OP(=O)(O)OCC1OC(n2ccc(N)nc2=O)C(O)C1O` (centres undefined), for which the EC50 was 174 µM and > 100 µM.

Turning to `CC(C)NC(=O)OCc1c(COC(=O)NC(C)C)c(-c2ccc(Cl)c(Cl)c2)n2c1CS(=O)(=O)C2`, the EC50 was > 200 µM and the IC50 was found to be 42.7 µM.

With `[O-][n+]1c2ccccc2cc2c1c1ccccc1n2O`, the EC50 is > 20.9 µM and the IC50 is > 20.9 µM.

As to `O=c1[nH]nc(Cc2ccc([N+](=O)[O-])cc2)[nH]1`, the EC50 is > 200 µM and the IC50 is > 200 µM.

In the case of `O=C(CC1=Nc2nnc(CCCCCCCc3nnc4n3C(=O)C(CC(=O)c3ccccc3)=N4)n2C1=O)c1ccccc1`, the EC50 was > 1.82 µM and the IC50 was > 1.82 µM.

As to `CCCCCC(/C=N/NC(N)=S)C(O)(C(F)(F)F)C(F)(F)F` (centres undefined), the EC50 is > 200 µM and the 50% inhibitory concentration (IC50) stood at 30.2 µM.

Regarding `Cc1nn(C(=O)c2ccncc2)c2c1C(c1ccc([N+](=O)[O-])cc1)SC(N)=N2` (centres undefined), the EC50 was > 200 µM and the IC50 turned out to be 126 µM.

In the case of `CC1(C)COC(c2cccc(C(=O)c3ccccc3)c2)=N1`, the EC50 was > 200 µM and the IC50 turned out to be 57.5 µM.

Consider `CC(C)CCCC(C)[C@H]1CC[C@H]2[C@H]3CC[C@H]4C[C@@H](CCC=C(c5cc(Cl)c(O)c(C(=O)O)c5)c5cc(Cl)c(O)c(C(=O)O)c5)CC[C@]4(C)[C@H]3CC[C@]12C` (some centres undefined), for which the EC50 was > 200 µM and the IC50 is > 200 µM.

For `COC(=O)C1=C(/C=C/C(C)=O)NC(C)=C(C(=O)OC(C)C)C1c1ccccc1Cl` (centres undefined), the EC50 was > 200 µM and the IC50 turned out to be 0.575 µM.

On to `COc1c(O)cc2c(c1O)C1O[C@H](CO)C(O)[C@H](O)[C@H]1OC2=O` (some centres undefined), for which the EC50 is > 200 µM and the IC50 was > 200 µM.

`CCOc1ccc(N=C2NC(=O)C(CC(=O)Nc3ccccc3[N+](=O)[O-])S2)cc1` (centres undefined): the EC50 was > 316 µM and the IC50 was > 316 µM.

For the molecule `O=C1OC(=O)c2cc(S(=O)(=O)c3ccc4c(c3)C(=O)OC4=O)ccc21`, the EC50 is > 200 µM and the IC50 is > 200 µM.

With `O=C(Cc1ccccc1)N[C@@H]1COC(=O)C2CCCN2C(=O)[C@@H]2CCCN2C1=O` (some centres undefined) (PhAc-[dS]-Pro-[ξP]; ester 1-C), the EC50 was > 200 µM and the IC50 was > 200 µM.

`Cc1cccc(C)c1NC(=O)C1C(=O)N(c2c(C)cccc2C)C(=O)/C1=N\NC(N)=S` (centres undefined): the EC50 is > 22.9 µM and the IC50 is > 22.9 µM.

As to `Cn1c(=O)c2c(nc(CCCCCc3nc4c(c(=O)n(C)c(=O)n4C)n3C)n2C)n(C)c1=O`, the EC50 was > 200 µM and the IC50 is > 200 µM.

`COc1ccc(NC(=O)C(=O)c2c(O)c3ccc(O)cc3oc2=O)c([N+](=O)[O-])c1`: the EC50 is > 447 µM and the IC50 amounted to 229 µM.

As to `O=C1C2=Cc3ccccc3OC2(O)Oc2ccccc21` (centres undefined), the EC50 is > 200 µM and the IC50 worked out at 23.4 µM.

Consider `CN(C)c1ncnc2c1ncn2C1OC(CO)CC1F` (centres undefined), for which the EC50 was 141 µM and the IC50 was found to be 178 µM.

For the molecule `Cc1cccc(Cl)c1NC=O`, the result was inactive.

For the molecule `Cn1c(-c2ccc(/C=N/N=C/c3ccc(-c4c[n+]5ccccc5n4C)cc3)cc2)c[n+]2ccccc12`, the EC50 is > 200 µM and the half-maximal inhibitory concentration (IC50) was 170 µM.

Turning to `COc1cc(/C=C(\C#N)C(=O)c2ccccc2)ccc1O`, the EC50 was > 646 µM and the IC50 is 490 µM.

With `COC(=O)C([C@H](NC1(c2ccccc2)c2ccccc2-c2ccccc21)C(=O)OC)N(NC(=O)OCc1ccccc1)C(=O)OCc1ccccc1` (mixture of isomers), the EC50 is > 200 µM and the IC50 was 110 µM.

Consider `CC(=O)C(=Cc1cccc([N+](=O)[O-])c1)C(C)=O`, for which the EC50 was > 155 µM and the IC50 turned out to be 20.4 µM.

For the molecule `O=C(/N=N/C(=O)N1CCCCC1)N1CCCCC1`, the EC50 is > 67.6 µM and the IC50 stood at 28.8 µM.

As for `O=S(=O)(c1cc(Cl)ccc1Cl)N1CCN(S(=O)(=O)c2cc(Cl)ccc2Cl)CC1`, the EC50 is > 200 µM and the IC50 is > 200 µM.

Regarding `O=S(O)CCCCSSSCCCCS(=O)O`, the EC50 was > 200 µM and the 50% inhibitory concentration (IC50) came to 2.69 µM.

Take `COc1ccc(CNNCc2ccc(OC)cc2)cc1`: the EC50 is > 200 µM and the IC50 came out at 110 µM.

`Cc1n[nH]c(=O)n1/N=C/c1ccncc1`: the EC50 is > 200 µM and the IC50 came out at 102 µM.

Regarding `COCc1c(CO)cnc(C)c1OC1OC(CO)C(O)C(O)C1O` (centres undefined), the EC50 is > 724 µM and the IC50 was > 724 µM.

Take `C=C[C@@]1(C)CC2(C=C(CO)C(O)O2)Oc2c1c(=O)oc1cccc(C)c21` (some centres undefined): the EC50 was > 200 µM and the IC50 stood at 3.02 µM.

On to `O=C1Cc2c([nH]c3ccccc23)-c2cc(Br)ccc2N1`, for which the EC50 was > 41.7 µM and the IC50 was > 41.7 µM.

With `COc1ccc(C2=CC(C(C)=C(C(N)=O)C(N)=O)C=C(c3ccc(Br)cc3)C2)c(OC)c1` (centres undefined), the EC50 was > 200 µM and the IC50 amounted to 75.9 µM.

For the molecule `CC1=C(CCc2ccoc2)[C@@]2(C)CCCC(C)(C)C2C(=O)[C@@H]1O[C@H]1C(=O)C2C(C)(C)CCC[C@]2(C)[C@](O)(CCc2ccoc2)C1C` (some centres undefined), the EC50 is > 4.27 µM and the IC50 was > 4.27 µM.

Consider `Clc1ccc(C2N3CCCCC3[C@@H]3c4[nH]c5ccccc5c4CCN23)cc1` (some centres undefined), for which the EC50 was > 19.1 µM and the IC50 was > 19.1 µM.

As to `Cc1cc(C)c(C(=O)O)c(N)c1O`, the result was inactive.

The values above are taken from PubChem BioAssay AID179 (DTP/NCI, 2004).
